Measurements as given in ChEMBL document CHEMBL1201862, “PubChem BioAssay data set” (2004).
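Briefly, cells in 96-well plates were exposed to five compound concentrations for 48 h, and endpoints were estimated by linear interpolation. GI50 = concentration required for 50% inhibition of growth.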 The source made the active and inactive calls. No stated cut-off is given here; in the data, active = GI50 up to about 1.1 µM and inactive = higher.

How the values were obtained:
Test in all cases: NCI anticancer screen, dose series, 48 h
A498 = test system: A498
A549 = test system: A549
ACHN = test system: ACHN
CCRF-CEM = test system: CCRF-CEM
DMS-114 = test system: DMS-114
EKVX = test system: EKVX
HCT-116 = test system: HCT-116
HL-60 = test system: HL-60
HOP-62 = test system: HOP-62
HOP-92 = test system: HOP-92
HT-29 = test system: HT-29
IGROV-1 = test system: IGROV-1
K562 = test system: K562
KM12 = test system: KM12
M14 = test system: M14
M19-MEL = test system: M19-MEL
MOLT-4 = test system: MOLT-4
NCI-H226 = test system: NCI-H226
NCI-H23 = test system: NCI-H23
NCI-H460 = test system: NCI-H460
NCI-H522 = test system: NCI-H522
OVCAR-5 = test system: OVCAR-5
OVCAR-8 = test system: OVCAR-8
RXF 393 = test system: RXF 393
RXF 631 = test system: RXF 631
SF-295 = test system: SF-295
SK-MEL-28 = test system: SK-MEL-28
SK-OV-3 = test system: SK-OV-3
SNB-19 = test system: SNB-19
SNB-78 = test system: SNB-78
SR = test system: SR
TK-10 = test system: TK-10
U-251 = test system: U-251
UACC-257 = test system: UACC-257
UACC-62 = test system: UACC-62
UO-31 = test system: UO-31
786-0 = test system: 786-0
CAKI-1 = test system: CAKI-1
COLO 205 = test system: COLO 205
DLD-1 = test system: DLD-1
DMS-273 = test system: DMS-273
HCC 2998 = test system: HCC 2998
HOP-18 = test system: HOP-18
KM-20L2 = test system: KM-20L2
LOX IMVI = test system: LOX IMVI
LXFL 529 = test system: LXFL 529
Malme-3M = test system: Malme-3M
OVCAR-3 = test system: OVCAR-3
OVCAR-4 = test system: OVCAR-4
RPMI-8226 = test system: RPMI-8226
SF-268 = test system: SF-268
SF-539 = test system: SF-539
SK-MEL-5 = test system: SK-MEL-5
SN12C = test system: SN12C
SNB-75 = test system: SNB-75
SW-620 = test system: SW-620
XF498 = test system: XF498
HCT-15 = test system: HCT-15
SK-MEL-2 = test system: SK-MEL-2

C[C@H]1C(=O)c2c(cc(O)c(C3OC(CO)C(O)C(O)C3O)c2O)OC1c1ccc(O)c(O)c1 (some centres undefined)
GI50 (A498): > 100 µM (inactive)
GI50 (A549): > 100 µM (inactive)
GI50 (ACHN): > 100 µM (inactive)
GI50 (CCRF-CEM): > 100 µM (inactive)
GI50 (DMS-114): > 100 µM (inactive)
GI50 (EKVX): > 100 µM (inactive)
GI50 (HCT-116): > 100 µM (inactive)
GI50 (HL-60): > 100 µM (inactive)
GI50 (HOP-62): > 100 µM (inactive)
GI50 (HOP-92): > 100 µM (inactive)
GI50 (HT-29): > 100 µM (inactive)
GI50 (IGROV-1): > 100 µM (inactive)
GI50 (K562): > 10 µM (inactive)
GI50 (KM12): > 100 µM (inactive)
GI50 (M14): > 100 µM (inactive)
GI50 (M19-MEL): > 100 µM (inactive)
GI50 (MOLT-4): > 100 µM (inactive)
GI50 (NCI-H226): 64.9 µM (inactive)
GI50 (NCI-H23): > 100 µM (inactive)
GI50 (NCI-H460): > 100 µM (inactive)
GI50 (NCI-H522): > 100 µM (inactive)
GI50 (OVCAR-5): > 100 µM (inactive)
GI50 (OVCAR-8): > 100 µM (inactive)
GI50 (RXF 393): > 100 µM (inactive)
GI50 (RXF 631): > 100 µM (inactive)
GI50 (SF-295): > 100 µM (inactive)
GI50 (SK-MEL-28): > 100 µM (inactive)
GI50 (SK-OV-3): > 100 µM (inactive)
GI50 (SNB-19): > 100 µM (inactive)
GI50 (SNB-78): > 100 µM (inactive)
GI50 (SR): > 100 µM (inactive)
GI50 (TK-10): > 100 µM (inactive)
GI50 (U-251): > 100 µM (inactive)
GI50 (UACC-257): > 100 µM (inactive)
GI50 (UACC-62): > 100 µM (inactive)
GI50 (UO-31): > 100 µM (inactive)

COC(=O)C1=CC2C(=O)OC1CC2C#N (centres undefined)
GI50 (786-0): > 100 µM (inactive)
GI50 (A498): > 100 µM (inactive)
GI50 (A549): > 100 µM (inactive)
GI50 (ACHN): > 100 µM (inactive)
GI50 (CAKI-1): > 100 µM (inactive)
GI50 (CCRF-CEM): > 100 µM (inactive)
GI50 (COLO 205): > 100 µM (inactive)
GI50 (DLD-1): > 100 µM (inactive)
GI50 (DMS-114): > 100 µM (inactive)
GI50 (DMS-273): > 100 µM (inactive)
GI50 (HCC 2998): > 100 µM (inactive)
GI50 (HCT-116): > 100 µM (inactive)
GI50 (HL-60): > 100 µM (inactive)
GI50 (HOP-18): > 100 µM (inactive)
GI50 (HOP-62): > 100 µM (inactive)
GI50 (HOP-92): > 100 µM (inactive)
GI50 (HT-29): > 100 µM (inactive)
GI50 (IGROV-1): > 100 µM (inactive)
GI50 (K562): > 100 µM (inactive)
GI50 (KM-20L2): > 100 µM (inactive)
GI50 (KM12): > 100 µM (inactive)
GI50 (LOX IMVI): > 100 µM (inactive)
GI50 (LXFL 529): > 100 µM (inactive)
GI50 (M14): > 100 µM (inactive)
GI50 (MOLT-4): > 100 µM (inactive)
GI50 (Malme-3M): > 100 µM (inactive)
GI50 (NCI-H226): > 100 µM (inactive)
GI50 (NCI-H23): > 100 µM (inactive)
GI50 (NCI-H460): > 100 µM (inactive)
GI50 (NCI-H522): > 100 µM (inactive)
GI50 (OVCAR-3): > 100 µM (inactive)
GI50 (OVCAR-4): > 100 µM (inactive)
GI50 (OVCAR-8): > 100 µM (inactive)
GI50 (RPMI-8226): > 100 µM (inactive)
GI50 (SF-268): > 100 µM (inactive)
GI50 (SF-295): > 100 µM (inactive)
GI50 (SF-539): > 100 µM (inactive)
GI50 (SK-MEL-28): > 100 µM (inactive)
GI50 (SK-MEL-5): > 100 µM (inactive)
GI50 (SK-OV-3): > 100 µM (inactive)
GI50 (SN12C): > 100 µM (inactive)
GI50 (SNB-19): > 100 µM (inactive)
GI50 (SNB-75): > 100 µM (inactive)
GI50 (SNB-78): > 100 µM (inactive)
GI50 (SR): > 100 µM (inactive)
GI50 (SW-620): > 100 µM (inactive)
GI50 (TK-10): > 100 µM (inactive)
GI50 (U-251): > 100 µM (inactive)
GI50 (UACC-257): > 100 µM (inactive)
GI50 (UACC-62): > 100 µM (inactive)
GI50 (UO-31): > 100 µM (inactive)
GI50 (XF498): > 100 µM (inactive)

Cc1cccc(-c2nnc3s/c(=C\c4ccc5c(c4)OCO5)c(=O)n23)c1
GI50 (786-0): > 100 µM (inactive)
GI50 (A498): > 100 µM (inactive)
GI50 (A549): > 100 µM (inactive)
GI50 (ACHN): > 100 µM (inactive)
GI50 (CAKI-1): > 100 µM (inactive)
GI50 (CCRF-CEM): > 100 µM (inactive)
GI50 (COLO 205): > 100 µM (inactive)
GI50 (DLD-1): > 100 µM (inactive)
GI50 (DMS-114): > 100 µM (inactive)
GI50 (DMS-273): > 100 µM (inactive)
GI50 (EKVX): > 100 µM (inactive)
GI50 (HCC 2998): > 100 µM (inactive)
GI50 (HCT-116): > 100 µM (inactive)
GI50 (HCT-15): > 100 µM
GI50 (HL-60): > 100 µM (inactive)
GI50 (HOP-18): > 100 µM (inactive)
GI50 (HOP-62): > 100 µM (inactive)
GI50 (HOP-92): > 100 µM (inactive)
GI50 (IGROV-1): > 100 µM (inactive)
GI50 (K562): > 100 µM (inactive)
GI50 (KM-20L2): > 100 µM (inactive)
GI50 (KM12): > 100 µM (inactive)
GI50 (LOX IMVI): > 100 µM (inactive)
GI50 (LXFL 529): > 100 µM (inactive)
GI50 (M14): > 100 µM (inactive)
GI50 (M19-MEL): > 100 µM (inactive)
GI50 (MOLT-4): > 100 µM (inactive)
GI50 (Malme-3M): > 100 µM (inactive)
GI50 (NCI-H226): > 100 µM (inactive)
GI50 (NCI-H23): > 100 µM (inactive)
GI50 (NCI-H460): > 100 µM (inactive)
GI50 (NCI-H522): > 100 µM (inactive)
GI50 (OVCAR-3): > 100 µM (inactive)
GI50 (OVCAR-4): > 100 µM (inactive)
GI50 (OVCAR-5): > 100 µM (inactive)
GI50 (OVCAR-8): > 100 µM (inactive)
GI50 (RPMI-8226): > 100 µM (inactive)
GI50 (RXF 393): > 100 µM (inactive)
GI50 (SF-268): > 100 µM (inactive)
GI50 (SF-295): > 100 µM (inactive)
GI50 (SF-539): > 100 µM (inactive)
GI50 (SK-MEL-28): > 100 µM (inactive)
GI50 (SK-MEL-2): > 100 µM (inactive)
GI50 (SK-MEL-5): > 100 µM (inactive)
GI50 (SK-OV-3): > 100 µM (inactive)
GI50 (SN12C): > 100 µM (inactive)
GI50 (SNB-19): > 100 µM (inactive)
GI50 (SNB-75): 26.9 µM (inactive)
GI50 (SNB-78): > 100 µM (inactive)
GI50 (SW-620): > 100 µM (inactive)
GI50 (TK-10): > 100 µM (inactive)
GI50 (U-251): > 100 µM (inactive)
GI50 (UACC-257): 29.8 µM (inactive)
GI50 (UACC-62): > 100 µM (inactive)
GI50 (UO-31): > 100 µM (inactive)
GI50 (XF498): > 100 µM (inactive)
